In a melting point compilation (Tetko et al.; mined from patent text by program, amines drawn as free bases though some values may be those of a salt):

| Structure (SMILES) | melting point |
| --- | --- |
| CC(=O)OCc1cnc2c(NC(=O)c3c(Cl)cccc3Cl)cccc2c1 | 199 to 201 °C |
| CCN(CC)C(=O)c1ccc(C(=C2CCN(Cc3ccccc3)CC2)c2ccc(Cl)cc2)cc1 | 100 to 110 °C |
| CC(C)(C)c1cc(/C=C/c2nnc(N)o2)cc(C(C)(C)C)c1O | 221 °C |
| CCn1c(N)c(-c2ncc[nH]2)c(=O)c2ccc(C#CC(O)(c3ccccc3)C(F)(F)F)nc21 (centres undefined) | 260 °C |
| CCC(=O)c1[nH]c2cc(Cl)ccc2c1N | 144 to 146 °C |
| CC1(CBr)SC2C(NC(=O)COc3ccccc3)C(=O)N2C1C(=O)O (centres undefined) | 164 to 166 °C |
| Cc1cc(C)c(N2c3ccccc3S(=O)(=O)c3cc(C=O)ccc32)c(C)c1 | 194 to 197 °C |
| CC(=O)NCc1ccc2c(c1)N(C1CCN(CCc3cccc(F)c3)CC1)CC2 | 161 to 162 °C |
| CCCCNC(N)=Nc1nc(-c2cccc(CNC(C)=O)n2)cs1 | 145 to 146 °C |
| Nc1nc(N)c([N+](=O)[O-])c(OCc2ccccc2)n1 | 194 to 195 °C |
| O=C1c2cscc2Nc2ccccc2N1Cc1ccc(Cl)c(C(F)(F)F)c1 | 181 to 183 °C |
| CC(C)(C)OC(=O)N1CCC[C@@H](Nc2ncc3c(n2)-c2ccccc2[C@@H](c2ccc(Cl)c(Cl)c2)C3)C1 | 85 to 87 °C |
| CCCCc1nn(-c2cc(NC(=O)CCC)ccc2Cl)c(=O)n1Cc1ccc(-c2ccccc2S(=O)(=O)NC(=O)c2ccccc2Cl)cc1 | > 130 °C |
| CCc1cccc(N2C(c3ccc(Cl)cc3)=NS(=O)(=O)c3cnccc32)c1 | 227 to 229 °C |
| COC1CCN(Cc2ccc(C#CC(=O)Nc3ccc(-c4ccc(Cl)cc4)cc3)cc2)CC1 | 145 to 146 °C |
| COc1ccc2ccc(N)cc2c1 | 157 °C |
| S=c1cc(Oc2c(Cl)cccc2Cl)c2cc(Cl)ccc2s1 | 208 to 210 °C |
| COC(=O)C(CNC(=O)C1CC1)c1cccc2ccccc12 (centres undefined) | 140 to 142 °C |
| CCOc1nc(-c2cccc(Cl)c2)c2cc(C(O)(c3ccc(I)cc3)c3cncn3C)ccc2n1 (centres undefined) | 135 °C |
| Clc1ncnc2ccoc12 | 122 °C |
| Nc1ccc(CCCO)cc1 | 54 to 56 °C |
| O=c1nc(-c2cccc(S(=O)Cc3ccccc3)n2)sc2ccccc12 (centres undefined) | 208 to 210 °C |
| CC(C)c1ccc(-c2cc(C(=O)O)c(-c3cccc(C(=O)O)c3)o2)cc1 | 236 to 239 °C |
| CSc1ccc(CC2C(C)=C(CCN(O)C(N)=O)c3ccccc32)cc1 (centres undefined) | 163 to 164 °C |
| COC(=O)C(NC(=O)c1ccccc1)C(C)=O (centres undefined) | 113 °C |

| Structure (SMILES) | melting point |
| --- | --- |
| COc1ccc(CCN2CCN(c3cccccc3=O)CC2)cc1OC | 83 to 85 °C |
| Brc1ccc2cnncc2c1 | 140 to 143 °C |
| CCc1nc2c(N)nc3cc(CCC#N)ccc3c2n1CC1CCOCC1 | 273 to 275 °C |
| CCN1CCN(CC/C=C/c2cc3ncc(C#N)c(Nc4cc(OC)c(Cl)cc4Cl)c3cc2OC)CC1 | 129 to 131 °C |
| Cc1cc2c(-c3cccc(C(F)(F)F)c3)nc(-c3ccc(C(F)(F)F)cc3)nc2s1 | 134 to 136 °C |
| CCCC(=O)Nc1n[nH]c2cc(-c3ccc(F)cc3)ccc12 | 232 °C |
| Cc1ccc(C(=O)N[C@H](CSCC(=O)OC(C)(C)C)CC(C)C)s1 | 81 to 83 °C |
| COc1cc(-c2nc(N)nn2CCC2CCCCC2)c(OC)cc1C | 136 to 137 °C |
| Cn1nc(-c2ccc(F)cc2)c(-c2ccncc2)c1N | 155 to 158 °C |
| CCC1N=C(c2ccccc2Cl)c2cc(CC(=O)O)sc2-n2c(C)nnc21 (centres undefined) | 170 to 180 °C |
| COC(=O)COc1c2c(cc3c1c1c(C(N)=O)cccc1n3Cc1ccccc1)CCCC2 | 174 to 177 °C |
| Nc1nc(-n2cc(C(=O)O)c(=O)c3c(F)c(F)c(F)c(F)c32)c(F)cc1F | 236 to 242 °C |
| CCOC(=O)n1c2ccccc2c(=O)n1C(c1ccccc1)c1ccccc1 | 115 to 118 °C |
| CCC(C)c1ccc2ccccc2c1C(=O)O (centres undefined) | 168 to 170 °C |
| c1ccc2c(c1)ncn2CN1CCN(Cn2cnc3ccccc32)CC1 | 250 to 253 °C |
| CCn1ncc2c3onc(-c4ccccc4)c3cnc21 | 151 to 153 °C |
| CCC(CC)c1nn(-c2ccc(C(F)(F)F)cn2)cc1CCCOc1c(F)cccc1CC(=O)O | 102 to 103 °C |
| CCOCC(=NO)C(C)(C)NCC(Cn1ccnc1[N+](=O)[O-])ONC(C)(C)C(CCn1ccnc1[N+](=O)[O-])=NO (centres undefined) | 105 to 107 °C |
| O=C(Oc1ccccc1)N1CCCc2nc3ccccc3c(O)c2C1 | 299 °C |
| CCOc1cc2c(=O)cc(C(=O)O)[nH]c2ccc1=O | > 280 °C |
| O=c1[nH]c2ccccc2c(=O)cc1Nc1ccccc1 | 227 to 228 °C |
| C#CCOc1ccc2c(C)cc(=O)oc2c1C(=O)C=Cc1cccnc1 | 203 to 205 °C |
| CN1CCN(C)c2cccc(Nc3ncc(Cl)c(N[C@@H]4CCCC[C@H]4NS(C)(=O)=O)n3)c2C1=O | 160 °C |
| Oc1ccc2c(ccc3ccccc32)c1-c1c(O)ccc2c1ccc1ccccc12 | 244 to 245 °C |
| C#CCCOC(c1ccccc1)(c1ccccc1)c1ccccc1 | 97 to 99 °C |

| Structure (SMILES) | melting point |
| --- | --- |
| CS(=O)(=O)c1ccc(C(=O)C(C#N)C(=O)C2CC2)c(Cl)c1-c1nccs1 (centres undefined) | 162 to 164 °C |
| CC(C)(C)C12COC(CCCCBr)(OC1)OC2 | 111 to 115 °C |
| CCc1ccc2c(c1)C1CN(CCCC(=O)c3ccc(F)cc3)CCC1N2 (centres undefined) | 192 to 195 °C |
| COc1ccc2c(C(=O)N[C@H](Cc3ccc(C(F)(F)F)cc3)[C@@H](O)c3ccc(F)cc3)cccc2c1 (racemic) | 193 to 194 °C |
| COC(=O)c1cc(Cl)cc2c1OC(C)C(=O)N2C (centres undefined) | 128 to 130 °C |
| CCCn1nc2c(N)nc3ccccc3c2c1CCNC(=O)NCC | 206 to 207 °C |
| CC1Nc2cc(F)ccc2-n2cccc21 (centres undefined) | 76 to 78 °C |
| NC(N)=Nc1nc(-c2ccc(CNC(=O)CS(=O)Cc3ccco3)o2)cs1 (centres undefined) | 208 to 209 °C |
| C=CCn1c(-c2cccnc2)nn(CN2CCN(c3cccc4c3OCCO4)CC2)c1=S | 122 to 127 °C |
| CC(C)(C(=O)C=Cc1ccc(Cl)cc1Cl)C1OCCO1 | 92 to 93 °C |
| COc1c(O)c(C=O)cc2c1OCC2 | 71 to 72 °C |
| CC1(C)CC(N(c2nc(Cl)nc(N(C3CC(C)(C)N(O)C(C)(C)C3)C3CC(C)(C)N(O)C(C)(C)C3)n2)C2CC(C)(C)N(O)C(C)(C)C2)CC(C)(C)N1O | 252 to 256 °C |
| COC(=O)c1ccn2ncnc2c1 | 125 to 126 °C |
| Cc1cc(C)n2nc(-c3ccccc3)c(CC(=O)N(C)C)c2n1 | 171 to 172 °C |
| CS(=O)(=O)C(=C1CN(C(c2ccccc2)c2ccccc2)C1)c1cc(Cl)cc(Cl)c1 | 204 °C |
| O=C(OCc1c(F)c(F)nc(F)c1Cl)c1ccccc1 | 60 °C |
| CCCCCCN1CCC[C@H](NCc2ccccc2OC)[C@@H]1c1ccccc1 (relative stereo) | 48 to 50 °C |
| CNCC1Cc2cc(Cl)cc(C3CCCCC3)c2O1 (centres undefined) | 125 to 128 °C |
| COC(=O)c1ccccc1C=Nc1cc(C)ccc1O | 82 to 83 °C |
| C[C@@H]1Cc2cc([N+](=O)[O-])sc2[C@H](C)N1CCNC(=O)c1ccc([N+](=O)[O-])cc1 (relative stereo) | 155 to 156 °C |
| CCCCCN(CCC12CC3CC(CC(C3)C1)C2)C(=O)NCCc1cccnc1 | 112 to 114 °C |
| OCc1cnc(Cl)cc1Cl | 73 to 77 °C |
| COc1cc2[nH]c(=O)cc(C(F)(F)F)c2cc1NC(C)=O | 280 °C |
| O=C(O)c1cc([N+](=O)[O-])ccc1Nc1ccc(CCCCCc2ccc(Cl)c(Cl)c2)cc1 | 147 to 148 °C |
| CC(C)(C)OC(=O)N1CCn2c(c(C(N)=O)c(C#N)c2C2CCOCC2)C1 | 212 to 221 °C |

| Structure (SMILES) | melting point |
| --- | --- |
| OC(C=Cc1ccccc1)Cn1ccnc1 (centres undefined) | 108 to 110 °C |
| CCCc1c(OCCCCCCc2cccc(OC)c2OC)ccc(C(=O)O)c1O | 115 to 118 °C |
| CN1Cc2c(-c3noc(CCl)n3)ncn2-c2ccccc2C1=O | 208 to 209 °C |
| CS(=O)(=O)c1ccc(-c2cnn(-c3ccoc3)c(=O)c2-c2ccc(F)cc2)cc1 | 239 to 242 °C |
| CC1(C)C(=O)N(CCO)C(=O)N1CN1C(=O)N(CCO)C(=O)C1(C)C | 165 to 166 °C |
| Cc1nc2cccc3n(CCCCCNS(=O)(=O)C(F)(F)F)c(=O)c1n23 | 149 to 150 °C |
| O=C(NC(=O)c1c(F)cccc1F)Nc1cc(C(F)(F)F)c(F)cc1Cl | 192 °C |
| Cc1oc(-c2ccccc2)nc1COc1ccc2cc(CCCC3SC(=O)NC3=O)ccc2c1 (centres undefined) | 208 to 209 °C |
| CC1=C(C(=O)OCc2ccccc2)C(c2cccc([N+](=O)[O-])c2)c2c(ccnc2OC(C)C)N1 (centres undefined) | 158 to 160 °C |
| O=C(O)CCC(=O)OCc1ccccc1[N+](=O)[O-] | 63 to 65 °C |
| NC(=O)CC(O)(c1ccc(Br)cc1)c1cccnc1 (centres undefined) | 213 to 214 °C |
| CN(C)C(C)(C)c1ccc(-c2nc(Nc3ccc(-n4cncn4)cc3)ncc2C#N)cc1 | 235 to 237 °C |
| Cc1ccccc1OCC1NCCS1 (centres undefined) | 66 to 68 °C |
| O=C(O)Cc1ccc(NC(=O)C(COc2ccccc2)NS(=O)(=O)c2ccc(Cl)cc2)cc1 (racemic) | 190 to 192 °C |
| CN(C(=O)N[C@@H](Cc1ccc(NC(=O)c2c(Cl)cccc2Cl)cc1)C(=O)O)c1ccccc1C(=O)NCC1CCCCC1 | 201 °C |
| ClCc1cc2cccnc2s1 | 47 to 49 °C |
| O=C(O)Cc1cc([N+](=O)[O-])ccc1C(=O)O | 180 to 182 °C |
| Cc1cc(C2CCC(c3ccc(O)cc3)CC2)ccc1O (centres undefined) | 214 °C |
| N=C(N)N1CCC(CC(=O)O)CC1 | > 310 °C |
| CN(C(=O)c1ccc(-n2cccn2)cc1)C1CCN(C(=O)OC(C)(C)C)CC1 | 164 to 166 °C |
| NC(=O)c1cccc(NC(=O)C(F)(F)F)c1 | 262 to 263 °C |
| Cc1noc2c(Oc3ncccc3C(=O)NCC3CCC(C(C)(C)O)CC3)cccc12 (centres undefined) | 170 to 172 °C |
| CC1N(CCCCS(=O)(=O)O)c2ccc3ccccc3c2C1(C)C (centres undefined) | 263 °C |
| O=C(CC(=O)C(F)(F)Cl)c1ccc(Cl)cc1 | 50 to 51 °C |
